Data reported in patent US10058097B2, “Methods to increase corn productivity” (Valent BioSciences Corporation, priority 2016, dated 2018).

Legend:
Format in all cases: in vivo
greenhouse-grown maize = test: Greenhouse study: effect of GA3 dose +/- GB on growth, 7 and 14 days; conditions: without or with GB 10000 mg/liter
Description: (§1) In several of the following examples, corn was grown in greenhouse conditions, which are defined as follows. Seeds of a commercial hybrid variety were sown in Pro-Mix® BX (Pro-Mix is a registered trademark of Premier Horticulture Ltd.) with the addition of Osmocote (14-14-14) and gypsum in three-liter pots. Greenhouses were kept at 25±3° C. under a 16:8 hour photoperiod, with illumination at canopy level of ˜250 μmoles m^−2s^−1. Corn was typically fertigated with Peters 21-5-20+micronutrients, calcium ammonium nitrate and magnesium sulfate. Typical growth rates for corn under these conditions ranged from 4-5 cm/day.
(§2) In most greenhouse studies, spray applications were made. These applications were made in a track sprayer outfitted with a 4001E Teejet® nozzle (Teejet is available from and a registered trademark of Spraying Systems Co., Glendale Heights, Ill., USA) and applied at 40 psi. Although application volumes did vary between some studies, generally, 30 gallons/acre of spray solution was applied. Following spray applications, plants were returned to the greenhouse. Typically, experiments were blocked according to plant size, and a randomized complete block design (RCB) was used.
(§3) Synergy was determined using the following formula, in which a synergy factor is calculated by the Abbott method: % Cexp=A+B−(AB/100), here % Cexp is the expected efficacy and “in which A and B are the increase in growth (or resistance to stress) levels given by the single [plant growth regulators]. If the ratio between the experimentally observed efficacy of the mixture Cobs and the expected efficacy of the mixture is greater than 1, synergistic interactions are present in the mixture” (Gisi, Synergistic Interaction of Fungicides in Mixtures, The American Phytopathological Society, 86:11, 1273-1279, 1996).
In a separate study, the effect of one rate of GB on various doses of GA3 was studied.

corn [1] = test: Greenhouse study: Gibberellins, (S)-ABA and Glycine betaine on corn growth; conditions: GA3 or GA4 120 mg/liter, GB 10000 mg/liter, (S)-ABA 8.8 mg/liter
Description: as §1, §2
When gibberellins are combined with specific ratios of (S)-(+)-abscisic acid (“(S)-ABA”), a surprising enhancement of corn growth after application is often observed. The addition of GB to gibberellin+(S)-ABA spray combinations further increases the growth-promoting activity of the mixtures, as is shown in Table 6.

corn [2] = test: Nutrient stress greenhouse study, GA3 and/or GB, 7 days; conditions: GA3 120 mg/liter, GB 10,000 mg/liter; for Change in Height: n = 7 plants
Description: as §3
During rainy periods in March-May in the Midwestern United States, nitrogen fertilizer for corn is often limited due to a combination of leaching and mineralization. GB included with GA3 can help overcome the slow growth caused by low nutrients. In a greenhouse study in Long Grove, Ill. we evaluated the effect of GA3, GB and the combination under ‘normal nutrient’ and limited nutrient conditions.

potted corn plants = test: Acute drought stress greenhouse study, potted corn, 7 and 14 days
Description: In a separate acute drought stress greenhouse study conducted in Long Grove, Ill., corn plants were sprayed at V4 stage with solutions containing a non-ionic surfactant (0.25%, v/v) at 30 gallons of spray solution/acre and growth was determined by shoot height increase 7 and 14 days later. After treatment corn plants were not watered with the exception of one treatment of control (aqueous surfactant solution) that were watered as needed (well-watered control).

corn [3] = test: Field study Woodstock, IL 2015, height, ear counts and yield
Description: A field study was conducted at Woodstock, Ill. Seeds of a central corn belt variety with 103 days to maturity were sown and plants were sprayed at V5 with solutions containing a non-ionic surfactant (0.25%, v/v) at 15 gallons of spray solution/acre. Growth was followed by measuring shoot heights in centimeters 50 plants in each replicate at 7 and 13 days post-spraying. The number of kernels per kernel-row (average kernel number) as well as the number of kernel-rows (average row number) per ear was counted for 50 plants in each replicate 7 days before harvest. The harvest grain yield was corrected to 15% moisture.

corn plants = test: Field study Colby, KS 2015, yield; conditions: GA3 120 mg/liter, GB 10000 mg/liter, (S)-ABA 9 mg/liter
From the text: In a field study conducted in Colby, Kans., corn plants were sprayed with solutions containing a non-ionic surfactant (0.25%, v/v) at 15 gallons of spray solution per acre.

[4] = acute drought stressed, 120 ppm GA3, 3000 ppm GB, spray at V4
[5] = field, spray at V5, GA3 120 mg/liter, GB 10000 mg/liter, (S)-ABA 9 mg/liter

C=C1C[C@]23C[C@@]1(O)CC[C@H]2[C@@]12C=C[C@H](O)[C@@](C)(C(=O)O1)[C@H]2[C@@H]3C(=O)O [GA3, gibberellic acid]
Growth Rate, 0-7 day(s) (greenhouse-grown maize; GA3 30 mg/liter): 3.17 cm/day
Growth Rate, 0-14 day(s) (greenhouse-grown maize; GA3 30 mg/liter): 6.82 cm/day
Plant Growth over 7 days (greenhouse-grown maize; GA3 30 mg/liter): 22.2 cm
Plant Growth over 14 days (greenhouse-grown maize; GA3 30 mg/liter): 47.8 cm
Growth Rate, 0-7 day(s) (greenhouse-grown maize; GA3 60 mg/liter): 3.57 cm/day
Growth Rate, 0-14 day(s) (greenhouse-grown maize; GA3 60 mg/liter): 7.24 cm/day
Plant Growth over 7 days (greenhouse-grown maize; GA3 60 mg/liter): 25.0 cm
Plant Growth over 14 days (greenhouse-grown maize; GA3 60 mg/liter): 50.7 cm
Growth Rate, 0-7 day(s) (greenhouse-grown maize; GA3 120 mg/liter): 3.91 cm/day
Growth Rate, 0-14 day(s) (greenhouse-grown maize; GA3 120 mg/liter): 7.35 cm/day
Plant Growth over 7 days (greenhouse-grown maize; GA3 120 mg/liter): 27.3 cm
Plant Growth over 14 days (greenhouse-grown maize; GA3 120 mg/liter): 51.4 cm
Growth Rate, 0-7 day(s) (greenhouse-grown maize; GA3 240 mg/liter): 4.25 cm/day
Growth Rate, 0-14 day(s) (greenhouse-grown maize; GA3 240 mg/liter): 7.94 cm/day
Plant Growth over 7 days (greenhouse-grown maize; GA3 240 mg/liter): 29.8 cm
Plant Growth over 14 days (greenhouse-grown maize; GA3 240 mg/liter): 55.6 cm
7 days Change in Height (corn [1]): 32.5 cm
14 days Change in Height (corn [1]): 62.8 cm
Dry Weight (corn [1]): 8.1 g
Dry Weight (corn [2]; Low Nutrients): 2.50 g
Leaf Area (L1-L6) (corn [2]; Low Nutrients): 588.66 cm^2
Change in Height (corn [2]; Low Nutrients): 30.34 cm
Dry Weight (corn [2]; Normal Nutrients): 2.86 g
Leaf Area (L1-L6) (corn [2]; Normal Nutrients): 629.45 cm^2
Change in Height (corn [2]; Normal Nutrients): 38.83 cm
Shoot Growth 7 days after treatment as Percent Increase as compared to Drought Stressed Control (potted corn plants; [4]): 116.9%
Shoot Growth 14 days after treatment as Percent Increase as compared to Drought Stressed Control (potted corn plants; [4]): 118.7%
increased growth under drought as compared to controls (potted corn plants; at 7 days): 16.9%
increased growth under drought as compared to controls (potted corn plants; at 14 days): 18.7%
Average row number per ear (corn [3]; counted 7 days before harvest): 16.8
Height at 7 days post spray (corn [3]; [5]): 69.6 cm
Height at 13 days post spray (corn [3]; [5]): 88.6 cm
Yield (corn [3]; grain yield corrected to 15% moisture): 222.8 bu/acre
Yield (corn plants): 188.9 bu/acre
